Results taken from US6333337A, “Potassium channel inhibitors” (ICAgen, Inc., priority 1999, dated 2001).

What was measured:
Kv1.5 potassium channel = biological target: T1, Kv1.5 potassium channel (Homo sapiens, UniProt P22460); assay: Electrophysiological studies, whole cell patch clamp, inhibition of Kv1.5 potassium currents in Chinese hamster ovary cells; assay type: cell-based; settings: CHO cells
T1 construct: expressed in transfected cells
Procedure: Electrophysiological recordings of potassium currents in Chinese hamster ovary cells stably expressing the gene construct for the Kv1.5 potassium channel subunit were performed using the whole cell configuration of the patch clamp technique (Hamill et al., Pflugers Archiv 391:85, 1981). Cell lines expressing Kv1.5 were prepared using standard techniques known to those skilled in the art. Cells were plated on glass coverslips at a density of 2×10^4 cells/coverslip and used within 24-48 hours. Solutions used for electrophysiological recordings were as follows. Extracellular bathing solutions contained (in mM) 132 NaCl, 5.4 KCl, 1.8 CaCl2, 0.8 MgCl2, 10 HEPES, 5 glucose at pH 7.3. Electrode pipette solutions for measuring Kv1.5 contain (in mM) 100 KCl 5 NaCl, 2 MgCl2, 5 mM EGTA, 10 mM HEPES and 5 glucose at pH 7.4, 295 mOsm. The coverslips were placed in a small chamber (volume ~200 μl) on the mechanical stage of an inverted microscope and perfused (2 ml/min) with extracellular recording solution. Drug was applied using a series of narrow-bore glass capillary tubes (inner diameter ~100 μm) positioned approximately 200 μm from the cell.

human Kv1.5 = biological target: T2, human Kv1.5 (Homo sapiens, UniProt P22460); assay: 86Rb efflux assay, inhibition of 86Rb efflux through Kv1.5 potassium channels expressed in CHO cells; assay type: cell-based; settings: Kv1.5 in CHO cells, 70 mM KCl, 1 minute
T2 construct: expressed in transfected cells
T2 sequence (P22460 whole entry): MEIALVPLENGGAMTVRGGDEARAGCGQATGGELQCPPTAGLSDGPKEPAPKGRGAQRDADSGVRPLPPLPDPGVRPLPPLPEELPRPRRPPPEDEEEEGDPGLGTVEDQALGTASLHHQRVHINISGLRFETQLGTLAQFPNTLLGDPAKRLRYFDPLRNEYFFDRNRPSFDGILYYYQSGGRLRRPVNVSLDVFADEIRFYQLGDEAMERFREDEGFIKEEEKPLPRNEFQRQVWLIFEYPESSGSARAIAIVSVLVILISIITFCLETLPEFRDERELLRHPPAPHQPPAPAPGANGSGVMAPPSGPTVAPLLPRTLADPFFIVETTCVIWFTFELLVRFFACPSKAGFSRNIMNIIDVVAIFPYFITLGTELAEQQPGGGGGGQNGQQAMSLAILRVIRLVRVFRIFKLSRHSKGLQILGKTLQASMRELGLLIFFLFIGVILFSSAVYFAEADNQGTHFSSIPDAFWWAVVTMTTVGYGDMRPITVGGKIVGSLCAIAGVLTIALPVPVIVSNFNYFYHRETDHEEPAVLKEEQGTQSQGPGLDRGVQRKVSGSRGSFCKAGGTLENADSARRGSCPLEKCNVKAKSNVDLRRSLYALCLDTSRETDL
Procedure: Cells stably transfected with cDNA for human Kv1.5 (in pcDNA3 vector) were grown as confluent monolayers in 96 well tissue culture plates in MEM alpha with 10% heat inactivated fetal bovine serum and 400 μg/ml G418. Cells were incubated overnight in growth media containing 1 μCi/ml ^86 Rb to permit intracellular uptake of the isotope. At the end of the incubation period, the ^86 Rb solution was aspirated and the cells washed three times with Earls Balanced Salt Solution (EBSS) which contained (in mM) 132 NaCl 5.4 KCl, 1.8 CaCl2, 0.8 mM MgCl2 10 mM HEPES and 5 mM glucose. The cells were then preincubated for 10 minutes at room temperature in 100 μl/well of EBSS or EBSS containing test compounds. At the end of this period the wells were aspirated and to each well was then added 100 μl of a modified EBSS solution containing 70 mM KCl (NaCl replaced by KCl) and the compound to be tested. The high KCl concentration was utilized to depolarize the cells to membrane potentials that would activate Kv1.5 channels. After a 1 minute incubation in 70 mM KCl EBSS plus test compound, the solution was removed and placed into the appropriate well of a 96 well counting plate for analysis. Finally 100 μl of 0.1% sodium docecyl sulfate in EBSS was added to each well to lyse the cells. The lysate was taken for analysis to determine final cell content of ^86 Rb. Samples were counted in a Wallac Microbeta liquid scintillation counter by Cerenkov emission. Efflux was expressed as a percentage of the initial cell content of ^86 Rb.
The testing results of selective compounds from Tables 1A-C using this assay are reported in Table 2 (flux) as the potency for inhibition of ^86 Rb efflux through Kv1.5 potassium channels expressed in CHO cells by compounds of the invention.

T1 sequence (P22460 whole entry): as above

| Compound | IC50 (Kv1.5 potassium channel) [nM] | IC50 (human Kv1.5) [nM] |
| --- | --- | --- |
| CCc1ccc(S(=O)(=O)NC2c3cc(N(Cc4cccnc4)C(=O)C4CC4)ccc3CCC2O)cc1 (stereo not drawn) [Entry 123] | 100 |  |
| CCc1ccc(S(=O)(=O)NC2c3cc(NC(=O)c4ccccc4OC)ccc3CCC2O)cc1 (stereo not drawn) [Entry 13] | 400 | > 50000 |
| CCc1ccc(S(=O)(=O)NC2c3cc(NC(=O)c4cccs4)ccc3CCC2O)cc1 (stereo not drawn) [Entry 103] |  | 20000 |
| COc1cc(C)c(S(=O)(=O)NC2c3cc(NC(=O)c4ccccc4)ccc3CCC2O)c(C)c1C (stereo not drawn) [Entry 110] |  | 12000 |
| CCc1ccc(C(=O)Nc2ccc3c(c2)C(NS(=O)(=O)c2ccc(C(C)C)cc2)C(O)CC3)cc1 (stereo not drawn) [Entry 40] |  | 9000 |
| CCc1ccc(S(=O)(=O)NC2c3cc(N(Cc4cccnc4)C(=O)C4CC4)ccc3CCC2O)cc1 (stereo not drawn) [Entry 162] | 200 |  |
| CCCCc1ccc(S(=O)(=O)NC2c3cc(NC(=O)c4cccc(OC)c4)ccc3CCC2O)cc1 (stereo not drawn) [Entry 19] | 50 | 2900 |
| Cc1cccc(C(=O)Nc2ccc3c(c2)C(NS(=O)(=O)c2cccc(C)c2)C(O)CC3)c1 (stereo not drawn) [Entry 97] |  | 39000 |
| CCc1ccc(S(=O)(=O)NC2c3cc(NC(=O)C4CCCN4Cc4cccc(Cl)c4)ccc3CCC2O)cc1 (stereo not drawn) [Entry 135] | 100 |  |
| CCc1ccc(S(=O)(=O)NC2c3cc(NC(=O)c4cccc(OC)c4)ccc3CCC2O)cc1 (stereo not drawn) [Entry 158] | 600 |  |
| CCc1ccc(S(=O)(=O)N(Cc2cccnc2)C2c3cc(NC(=O)c4cccc(OC)c4)ccc3CCC2O)cc1 (stereo not drawn) [Entry 132] | 500 |  |
| CCc1ccc(S(=O)(=O)NC2c3cc(NC(=O)c4cccc(OC)c4)ccc3CCC2O)cc1 (stereo not drawn) [Entry 1] | 250 | 6800 |
| CCc1ccc(S(=O)(=O)N[C@H]2c3cc(NCc4ccc(OC(F)(F)F)cc4)ccc3CC[C@@H]2O)cc1 (relative stereo) [Entry 60, trans-N1-(4-ethylphenylsulfonyl)-N7-(4-trifluoromethoxybenzyl)-1,7-diamino-1,2,3,4-tetrahydro-2-naphthalenol] | 500 | > 50000 |
| CCc1ccc(S(=O)(=O)NC2c3cc(NC(=O)C#Cc4ccccc4)ccc3CCC2O)cc1 (stereo not drawn) [Entry 28] | 90 | 5900 |
| COc1cccc(C(=O)Nc2ccc3c(c2)C(NS(=O)(=O)Cc2ccccc2)C(O)CC3)c1 (stereo not drawn) [Entry 70] | 2100 | 29000 |
| CCc1ccc(S(=O)(=O)NC2c3cc(NC(=O)C4Cc5ccccc5CN4CC)ccc3CCC2O)cc1 (stereo not drawn) [Entry 24] | 600 | 5900 |
| CCCc1ccc(S(=O)(=O)NC2c3cc(NC(=O)c4ccc([N+](=O)[O-])cc4)ccc3CCC2O)cc1 (stereo not drawn) [Entry 85] |  | 46000 |
